Measured values: patent US20020182179A1, “HIV Therapy” (priority 1999, published 2002)

What was measured:
duck HBV = settings: preclinical; cited from earlier work
HIV-1 = settings: clinical use; cited from earlier work
HIV-1 protease = HIV-1 protease (Human immunodeficiency virus type 1 group M subtype B, UniProt P04585); settings: Phase I studies; cited from earlier work
HIV-1-LAI strain = test: in vitro anti-HIV-1 activity in PHA-P-activated PBMCs, RT activity in cell supernatants; assay type: cell-based
Description: Healthy PBMCs were separated from a buffy-coat of one HIV-seronegative blood donor by Ficoll-Hypaque density gradient centrifugation. PBMCs were activated by 1 μg/ml phytohemagglutinin (PHA-P) for two days in cell culture medium A: RPMI 1640 supplemented with 10% heat-inactivated (+56° C., 45 min.) fetal calf plasma (FCS), 2 mM L-glutamine and a tri-antibiotic mixture (penicillin, streptomycin, neomycin; PSN). After these two days, cells were washed and cultured at one million cell per milliliter in cell culture medium B: cell culture medium A supplemented with 20 IU/ml recombinant human interleukin-2. Cells were maintained at +37° C. in a 5% CO2-air humidified atmosphere.
Experiments were repeated twice with cells of other blood donors. In total, three independent experiments were performed. […]
200,000 PHA-P-activated PBMCs were added to each well of 96-well microplates. […] At day 7, RT activity were determined in cell supernatants, and potential cytotoxic effects of drugs and drug combinations were evaluated by microscopic observation.
Viral replication was measured by determining reverse transcriptase (“RT”) activity in cell supernatants using Retro-Sys® kit, according to manufacturer's recommendations (Innovagen, Lund, Sweden).
Effective doses were calculated using cumulative RT activities with Chou J. and T C. microcomputer software.

[1] = preclinical; po and IV; cited from earlier work

Compound: beta-L-2′, 3′-dicleoxy-5-fluorocytidene [Beta-L-FD4]
- activity in duck HBV model (duck HBV): ^9Preclinical; active in duck HBV model; see PharmaProjects, sections J5A & J5Z

Compound: CC(C)c1nc(CN(C)C(=O)N[C@H](C(=O)N[C@@H](Cc2ccccc2)C[C@H](O)[C@H](Cc2ccccc2)NC(=O)OCc2cncs2)C(C)C)cs1 [Ritonavir]
- adverse effects (HIV-1): troublesome adverse effects

Compound: Cc1cccc(C)c1OCC(=O)N[C@@H](Cc1ccccc1)[C@@H](O)C[C@H](Cc1ccccc1)NC(=O)[C@H](C(C)C)N1CCCNC1=O [ABT-378]
- potency relative to ritonavir (HIV-1 protease): ^9Phase I Studies show ABT-378 to be 10X more potent than ritonavir; see PharmaProjects sections J5A & J5Z.

Compound: PEG12000-IFN-alfa2b: conjugate of interferon alfa-2b with polyethylene glycol of average molecular weight 12000 via a urethane linkage
- effect on the in vitro anti HIV-1 activity of ribavirin (HIV-1-LAI strain; PHA-P-activated PBMCs infected with HIV-1-LAI): increased the in vitro anti HIV-1 activity of ribavirin
- inhibition of HIV replication in vitro (HIV-1-LAI strain; PHA-P-activated PBMCs, doses corresponding to plasmatic concentrations observed in animals and man): inhibited the HIV replication

Compound: Nc1nc(N)c2ncn([C@H]3CO[C@@H](CO)O3)c2n1 [DAPD, (−)-beta-D-2,6,-diaminopurine dioxolane]
- activity by route of administration [1]: ^10Preclinical; active po and IV; DAPD is a prodrug of another dioxolene purine, DXG. See PharmaProjects, sections J5A & J5Z
